Reference: patent US20110245218A1 (priority 2010, published 2011)

Row | SMILES | melting point [°C]
1 | CN1C(=O)C(S)=C(S)C1=O | 145 to 148
2 | CN1C(=O)C(SC(=N)N)=C(SC(=N)N)C1=O [Compound 1, [(1-methyl-2,5-dioxo-2,5-dihydro-1H-pyrrole-3,4-diyl)disulphanediyl]bis(aminomethaniminium) dichloride] | 163 to 164
3 | CN1C(=O)C(S)=C(SC(=N)N)C1=O [Compound 27, 4-{[amino(iminio)methyl]sulphanyl}-1-methyl-2,5-dioxo-2,5-dihydro-1H-pyrrole-3-thiolate] | 150 to 152
